In the supplement of paper PMC4862054:
Each block holds one compound with its values, some of them ahead of it.

What was measured:
Settings in all cases: 72 h
[1] = test system: BT-549
Outline: (§1)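 For viability and cell death testing, 384-well plates carried compound at 5 concentrations in 10-fold steps over a compound-specific 10,000-fold range, and breast cancer cell lines were seeded in 20 µl suspension. After 72 h incubation, cell death was read by CellTox Green fluorescence (485/520 nm) before viability was read by CellTiter-Glo luminescence. EC50 was fitted from the dose-response curves and censored at the top concentration. Normalisation on each plate was to 0.1 % DMSO and a positive kill control.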

[2] = test system: CAL-51
Outline: as §1

[3] = test system: BT-549; remark: listed apart in the source
Outline: (§2)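 EC50 is the value from a fitted percent-inhibition dose-response curve, censored at the highest concentration, and rows with zero drug sensitivity score were not kept. The underlying assay seeded breast cancer cell lines in 20 µl onto 384-well plates pre-loaded with compound in 5 µl medium for 72 h. Viability was then read by CellTiter-Blue fluorescence at 560/590 nm after 2 h at 37 °C, with each plate normalised to vehicle and a positive kill control.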

[4] = test system: HCC1599
Outline: as §2

[5] = test system: CAL-148
Outline: as §1

[6] = test system: DU-4475
Outline: as §1

[7] = test system: MDA-MB-453
Outline: as §1

[8] = test system: BT-474
Outline: as §1

[9] = test system: MDA-MB-468
Outline: as §1

[10] = test system: CAL-120
Outline: as §1

[11] = test system: Hs578T
Outline: as §2

[12] = test system: CAL-120; remark: listed apart in the source
Outline: as §2

[13] = test system: MDA-MB-231
Outline: as §2

[14] = test system: MFM-223
Outline: as §2

[15] = test system: HCC1143
Outline: as §2

[16] = test system: HDQ-P1
Outline: as §1

[17] = test system: MDA-MB-436
Outline: as §1

[18] = test system: MDA-MB-231; remark: listed apart in the source
Outline: as §1

[19] = test system: MCF-10A
Outline: as §1

[20] = test system: HCC1937
Outline: as §1

[21] = test system: CAL-85-1
Outline: as §1

[22] = test system: MFM-223; remark: listed apart in the source
Outline: as §1

[23] = test system: MDA-MB-468; remark: listed apart in the source
Outline: as §2

[24] = test system: SK-BR-3
Outline: as §2

[25] = test system: MDA-MB-436; remark: listed apart in the source
Outline: as §2

[26] = test system: HCC1937; remark: listed apart in the source
Outline: as §2

[27] = test system: SK-BR-3; remark: listed apart in the source
Outline: as §1

[28] = test system: HCC1599; remark: listed apart in the source
Outline: as §1

[29] = test system: Hs578T; remark: listed apart in the source
Outline: as §1

[30] = test system: HCC1143; remark: listed apart in the source
Outline: as §1

SMILES: CC(C)(C)c1cc(NC(=O)Nc2ccc(-c3cn4c(n3)sc3cc(OCCN5CCOCC5)ccc34)cc2)no1 [Quizartinib]
EC50, CellTiter-Blue viability [3]: 259 nM | EC50, CellTiter-Blue viability [4]: 878 nM

SMILES: Cn1c(=O)c(F)c(Nc2ccc(I)cc2F)c2c(=O)n(C[C@@H](O)CO)cnc21 [TAK-733]
EC50, CellTiter-Blue viability [11]: 114 nM | EC50, CellTiter-Blue viability [12]: 401 nM | EC50, CellTiter-Blue viability [13]: 4.92 nM | EC50, CellTiter-Blue viability [14]: 17.5 nM | EC50, CellTiter-Blue viability [15]: 14.2 nM | EC50, CellTiter-Glo [8]: 33.5 nM | EC50, CellTiter-Glo [16]: 6.97 nM | EC50, CellTiter-Glo [9]: 29.8 nM | EC50, CellTiter-Glo [10]: 66.6 nM | EC50, CellTiter-Glo [17]: 452 nM | EC50, CellTiter-Glo [6]: 7.03 nM | EC50, CellTiter-Glo [2]: 3.04 nM | EC50, CellTiter-Glo [18]: 130 nM | EC50, CellTiter-Glo [19]: 3.49 nM | EC50, CellTiter-Glo [20]: 341 nM | EC50, CellTiter-Glo [21]: 125 nM | EC50, CellTiter-Glo [22]: 371 nM

SMILES: CS(=O)(=O)CCNCc1ccc(-c2ccc3ncnc(Nc4ccc(OCc5cccc(F)c5)c(Cl)c4)c3c2)o1 [Lapatinib]
EC50, CellTiter-Blue viability [23]: 1560 nM | EC50, CellTiter-Blue viability [24]: 40.7 nM | EC50, CellTiter-Blue viability [3]: 4320 nM | EC50, CellTiter-Blue viability [11]: 3790 nM | EC50, CellTiter-Blue viability [12]: 6920 nM | EC50, CellTiter-Blue viability [25]: 5900 nM | EC50, CellTiter-Blue viability [13]: 5820 nM | EC50, CellTiter-Blue viability [26]: 6280 nM | EC50, CellTiter-Blue viability [14]: 9850 nM | EC50, CellTiter-Blue viability [4]: 191 nM | EC50, CellTiter-Glo [16]: 359 nM | EC50, CellTiter-Glo [27]: 49.8 nM | EC50, CellTiter-Glo [19]: 504 nM | EC50, CellTiter-Glo [21]: 304 nM

SMILES: CS(=O)(=O)OCCCCOS(C)(=O)=O [Busulfan]
EC50, CellTiter-Blue viability [26]: 77100 nM | EC50, CellTiter-Glo [8]: > 100000 nM

SMILES: COc1cc(Nc2ncc(F)c(Nc3ccc4c(n3)NC(=O)C(C)(C)O4)n2)cc(OC)c1OC [R406]
EC50, CellTiter-Blue viability [3]: 1030 nM | EC50, CellTiter-Blue viability [13]: 1040 nM

SMILES: Nc1nccc(-c2c(-c3ccc(F)cc3)ncn2C2CCCCC2)n1
EC50, CellTiter-Glo [9]: 213 nM | EC50, CellTiter-Glo [2]: > 10000 nM | EC50, CellTiter-Glo [19]: 9770 nM | EC50, CellTiter-Glo [21]: 9490 nM

SMILES: O=C(c1ccc(OCCN2CCCCC2)cc1)c1c(-c2ccc(O)cc2)sc2cc(O)ccc12 [Raloxifene]
EC50, CellTiter-Glo [8]: 8260 nM | EC50, CellTiter-Glo [9]: 4640 nM | EC50, CellTiter-Glo [21]: 3610 nM | EC50, CellTiter-Glo [22]: 2260 nM | EC50, CellTiter-Glo [28]: 9620 nM

SMILES: CCS(=O)(=O)c1cccc(-c2cc(C(=O)NC3CCN(C)CC3)c(C)c3[nH]c4ncc(C)cc4c23)c1 [TAK-901]
EC50, CellTiter-Blue viability [23]: 442 nM | EC50, CellTiter-Blue viability [3]: 126 nM | EC50, CellTiter-Blue viability [11]: 125 nM | EC50, CellTiter-Blue viability [12]: 94.4 nM | EC50, CellTiter-Blue viability [25]: 214 nM | EC50, CellTiter-Blue viability [13]: 110 nM | EC50, CellTiter-Blue viability [26]: 142 nM | EC50, CellTiter-Blue viability [14]: 56.6 nM | EC50, CellTiter-Blue viability [15]: 225 nM | EC50, CellTiter-Blue viability [4]: 110 nM | EC50, CellTiter-Glo [8]: 152 nM | EC50, CellTiter-Glo [16]: 642 nM | EC50, CellTiter-Glo [9]: 26.2 nM | EC50, CellTiter-Glo [1]: 155 nM | EC50, CellTiter-Glo [29]: 445 nM | EC50, CellTiter-Glo [10]: 131 nM | EC50, CellTiter-Glo [17]: 299 nM | EC50, CellTiter-Glo [18]: 144 nM | EC50, CellTiter-Glo [19]: 151 nM | EC50, CellTiter-Glo [22]: 123 nM | EC50, CellTiter-Glo [30]: 130 nM

Further lines, with some results ahead:

EC50, CellTiter-Glo [1]: 650 nM
SMILES: COc1cc(Nc2ncc(F)c(Nc3ccc4c(n3)NC(=O)C(C)(C)O4)n2)cc(OC)c1OC [Tamatinib]
EC50, CellTiter-Glo [2]: 2310 nM

EC50, CellTiter-Glo [7]: 7190 nM
SMILES: COc1ccc(C2=N[C@@H](c3ccc(Cl)cc3)[C@@H](c3ccc(Cl)cc3)N2C(=O)N2CCNC(=O)C2)c(OC(C)C)c1 [Nutlin-3]
EC50, CellTiter-Glo [5]: 7030 nM | EC50, CellTiter-Glo [6]: 2950 nM | EC50, CellTiter-Glo [2]: 17.6 nM

EC50, CellTiter-Glo [8]: 709 nM | EC50, CellTiter-Glo [9]: 3560 nM | EC50, CellTiter-Glo [1]: 947 nM
SMILES: Cc1cc(C(C)Nc2ccccc2)c2nc(N3CCOCC3)cc(=O)n2c1 (stereo not drawn) [TGX-221]
EC50, CellTiter-Glo [10]: > 10000 nM | EC50, CellTiter-Glo [2]: 22.8 nM
